Experimental data as given in patent publication US12691070B2, “Cationic lipids and preparation method thereof” (RiboX Therapeutics HK Limited, priority 2023, dated 2026).

How the values were obtained:
[1] = test system: MCP-I; assay: MCP-I cytokine elevation in serum; type: in vivo; conditions: cirRNA (SEQ ID NO: 1) LNPs, mice
Method: 6-8 week old, female BALB/C mice were injected with 0.5 mg*kg-1 of RNA LNPs by intravenous injection. At 2 and 24 hours post injection, animals were bled and sera concentrations of MCP-I were determined by an immunoassay (Luminex).

[2] = LNP zeta potential (Zetasizer); type: physicochemical
Summary of the method: (§1)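 LNPs of ionizable lipid/DSPC/cholesterol/DMG-PEG 2000 (50:10:38.5:1.5) made by microfluidic mixing of luciferase circRNA or mRNA in pH 4.5 acetate with lipids in ethanol (3:1, 12 ml/min), ionizable lipid:nucleotide 15 or 6, then dialyzed against PBS. Size, PDI (DLS) and zeta potential on Zetasizer; encapsulation by Ribogreen ± Triton X-100.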

[3] = test system: Hep G2 cells; assay: In vitro expression of firefly-luciferase, Hep G2; type: cell-based
Summary of the method: (§2)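 Cells were transfected with firefly-luciferase-encoding RNA-LNPs at 100 ng/mL. After 72 hours they were washed and lysed, and luciferase activity in the lysates was read by luminometry.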

[4] = test system: Alanine Aminotransferase (ALT); assay: Liver enzyme elevation in serum, ALT; type: in vivo; conditions: cirRNA (SEQ ID NO: 1) LNPs, BALB/C mice, intravenous 0.5 MPK
Method: (§3) 6-8 week old, female BALB/C mice were injected with 0.5 mg*kg-1 of RNA LNPs by intravenous injection. At 2 and 24 hours post injection, animals were bled and sera concentrations of Alanine Aminotransferase (ALT) and Aspartate Aminotransferase (AST) were determined by a blood chemistry analyzer.

[5] = LNP size and polydispersity index (PDI) by dynamic light scattering; type: physicochemical; conditions: for Size: in nm (unit assumed)
Summary of the method: as §1

[6] = test system: RAW 264.7 cells; assay: In vitro toxicity (CellTiter-Glo cell viability), RAW 264.7; type: cell-based;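 also: percent of untreated cells luminescence signal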
Summary of the method: (§4)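 First, cells receive RNA-LNPs at 1 μg/mL by transfection. After 72 hours, CellTiter-Glo reagent is added per kit protocol. Luminescence is then read and converted to cell viability.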

[7] = RNA encapsulation efficacy by Quant-IT Ribogreen kit; type: physicochemical; conditions: for Encapsulation Efficiency %: LNP with cirRNA (SEQ ID NO: 1); for Encapsulation Efficiency: LNP with mRNA (SEQ ID NO: 2)
Summary of the method: as §1

[8] = test system: BALB/C mice; assay: Local tolerance determination by footpad injection; type: in vivo; conditions: cirRNA (SEQ ID NO: 1) LNP, 0.175 mg*kg-1 subcutaneous into the footpad, 24 hours post minus prior
Method: 6-8 week old, female BALB/C mice were injected with 0.175 mg*kg-1 RNA LNPs by subcutaneous injection into the footpad. Prior to, and 24 hours post injections, injected footpad thickness was determined by a caliper.

[9] = test system: Aspartate Aminotransferase (AST); assay: Liver enzyme elevation in serum, AST; type: in vivo; conditions: cirRNA (SEQ ID NO: 1) LNPs, BALB/C mice, intravenous 0.5 MPK
Method: as §3

[10] = test system: Hep G2 cells; assay: In vitro toxicity (CellTiter-Glo cell viability), Hep G2; type: cell-based;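 also: percent of untreated cells luminescence signal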
Summary of the method: as §4

[11] = test system: RAW 264.7 cells; assay: In vitro expression of firefly-luciferase, RAW 264.7; type: cell-based
Summary of the method: as §2

[12] = test system: BALB/C mice; assay: In vivo expression, whole-body luminescence (IVIS)
Method: 6-8 week old, female BALB/C mice were injected with 0.05 mg*kg-1 of RNA-LNPs encoding for firefly-luciferase by intravenous injection. At 6 hours post injection, animals were intraperitoneally injected with 15 mg/ml of Luciferin substrate and whole-body luminescence was determined by a bioluminescent in vivo imaging system (IVIS).

[13] = cirRNA (SEQ ID NO: 1) LNPs, firefly-luciferase luminescence, Hep G2 cells
[14] = mRNA (SEQ ID NO: 2) LNP, 100 ng/mL, 72 hours post transfection, luciferase activity
[15] = cirRNA (SEQ ID NO: 1) LNPs, RAW 264.7 cells
[16] = mRNA (SEQ ID NO: 2) LNP, 1 μg/mL, 72 hours post transfection
[17] = cirRNA (SEQ ID NO: 1) LNPs, Hep G2 cells
[18] = cirRNA (SEQ ID NO: 1) LNPs, firefly-luciferase luminescence, RAW 264.7 cells
[19] = cirRNA (SEQ ID NO: 1) LNPs, BALB/C mice
[20] = mRNA (SEQ ID NO: 2) LNP, 0.05 mg*kg-1 intravenous, 6 hours post injection

CCCCCCCCC(CCCCCC)C(=O)OCCCCCCCCN(CCCCCCCCOC(=O)C(CCCCCC)CCCCCCCC)CCCOC(=O)NCCN1CCCCCC1 (stereo not shown) [Lipid 383]
MCP-I in Sera 2 hours After 0.5 MPK Injection [1]: 5759.00 pg/mL
MCP-I in Sera 24 hours After 0.5 MPK Injection [1]: 2458.33 pg/mL
Zeta (mV) ([2]; LNP with cirRNA (SEQ ID NO: 1)): −0.4606 mV
Zeta (mV) ([2]; LNP with mRNA (SEQ ID NO: 2)): −13.05 mV
In vitro Expression HepG2 [3, 13]: 6.03E+06
In vitro Expression HepG2 [3, 14]: 3.97E+01
ALT in Sera (IU/L) 2 hours After 0.5 MPK Injection [4]: 99.33 IU/L
ALT in Sera (IU/L) 24 hours After 0.5 MPK Injection [4]: 116.00 IU/L
PDI ([5]; LNP with cirRNA (SEQ ID NO: 1)): 0.1744
Size ([5]; LNP with cirRNA (SEQ ID NO: 1)): 90.41
PDI ([5]; LNP with mRNA (SEQ ID NO: 2)): 0.1802
Size ([5]; LNP with mRNA (SEQ ID NO: 2)): 94.23
In vitro Viability RAW [6, 15]: 89%
In vitro Viability RAW [6, 16]: 94%
Encapsulation Efficiency % [7]: 95%
Encapsulation Efficiency [7]: 86.72%
Footpad Thickness (24 h−0 h, mm) [8]: 0.60 mm
AST in Sera (IU/L) 2 hours After 0.5 MPK Injection [9]: 245.00 IU/L
AST in Sera (IU/L) 24 hours After 0.5 MPK Injection [9]: 354.67 IU/L
In vitro Viability HepG2 [10, 17]: 97%
In vitro Viability HepG2 [10, 16]: 94%
In vitro Expression RAW [11, 18]: 2.93E+06
In vitro Expression RAW [11, 14]: 2.14E+06
In vivo Expression (Whole Body) [12, 19]: 4.66E+08
In vivo Expression (Whole Body) [12, 20]: 2.01E+08

CCCCCCCCCCC(CCCCCCCC)COC(=O)CCCCCN(CCCCCC(=O)OCC(CCCCCCCC)CCCCCCCCCC)CCOC(=O)NCCN(C)C (stereo not shown) [Lipid 170]
MCP-I in Sera 2 hours After 0.5 MPK Injection [1]: 1322.04 pg/mL
MCP-I in Sera 24 hours After 0.5 MPK Injection [1]: 922.24 pg/mL
Zeta (mV) ([2]; LNP with cirRNA (SEQ ID NO: 1)): −0.455 mV
Zeta (mV) ([2]; LNP with mRNA (SEQ ID NO: 2)): 3.233 mV
In vitro Expression HepG2 [3, 13]: 2.91E+07
In vitro Expression HepG2 [3, 14]: 2.23E+08
ALT in Sera (IU/L) 2 hours After 0.5 MPK Injection [4]: 62.53 IU/L
ALT in Sera (IU/L) 24 hours After 0.5 MPK Injection [4]: 66.47 IU/L
PDI ([5]; LNP with cirRNA (SEQ ID NO: 1)): 0.08
Size ([5]; LNP with cirRNA (SEQ ID NO: 1)): 96.82
PDI ([5]; LNP with mRNA (SEQ ID NO: 2)): 0.0744
Size ([5]; LNP with mRNA (SEQ ID NO: 2)): 165.8
In vitro Viability RAW [6, 15]: 92%
In vitro Viability RAW [6, 16]: 82%
Encapsulation Efficiency % [7]: 97%
Encapsulation Efficiency [7]: 86.13%
Footpad Thickness (24 h−0 h, mm) [8]: 0.95 mm
AST in Sera (IU/L) 2 hours After 0.5 MPK Injection [9]: 175.67 IU/L
AST in Sera (IU/L) 24 hours After 0.5 MPK Injection [9]: 120.57 IU/L
In vitro Viability HepG2 [10, 17]: 31%
In vitro Viability HepG2 [10, 16]: 124%
In vitro Expression RAW [11, 18]: 3.14E+06
In vitro Expression RAW [11, 14]: 2.87E+02
In vivo Expression (Whole Body) [12, 19]: 3.35E+08
In vivo Expression (Whole Body) [12, 20]: 1.02E+09

CCCCC/C=C\CCOC(=O)CCCCCN(CCCCCC(=O)OCC(CCCCCCCC)CCCCCCCCCC)CCOC(=O)NCCN1CCCCC1 (stereo not shown) [Lipid 245]
MCP-I in Sera 2 hours After 0.5 MPK Injection [1]: 2543.33 pg/mL
MCP-I in Sera 24 hours After 0.5 MPK Injection [1]: 342.29 pg/mL
Zeta (mV) ([2]; LNP with cirRNA (SEQ ID NO: 1)): −5.02 mV
Zeta (mV) ([2]; LNP with mRNA (SEQ ID NO: 2)): 2.004 mV
In vitro Expression HepG2 [3, 13]: 7.24E+05
In vitro Expression HepG2 [3, 14]: 4.35E+06
ALT in Sera (IU/L) 2 hours After 0.5 MPK Injection [4]: 136.50 IU/L
ALT in Sera (IU/L) 24 hours After 0.5 MPK Injection [4]: 107.33 IU/L
PDI ([5]; LNP with cirRNA (SEQ ID NO: 1)): 0.12
Size ([5]; LNP with cirRNA (SEQ ID NO: 1)): 99.5
PDI ([5]; LNP with mRNA (SEQ ID NO: 2)): 0.1109
Size ([5]; LNP with mRNA (SEQ ID NO: 2)): 108.8
In vitro Viability RAW [6, 15]: 94%
In vitro Viability RAW [6, 16]: 89%
Encapsulation Efficiency % [7]: 86%
Encapsulation Efficiency [7]: 85.53%
Footpad Thickness (24 h−0 h, mm) [8]: 0.68 mm
AST in Sera (IU/L) 2 hours After 0.5 MPK Injection [9]: 387.00 IU/L
AST in Sera (IU/L) 24 hours After 0.5 MPK Injection [9]: 187.67 IU/L
In vitro Viability HepG2 [10, 17]: 88%
In vitro Viability HepG2 [10, 16]: 118%
In vitro Expression RAW [11, 18]: 2.68E+05
In vitro Expression RAW [11, 14]: 3.81E+06
In vivo Expression (Whole Body) [12, 19]: 2.99E+08
In vivo Expression (Whole Body) [12, 20]: 1.18E+08

CCCCC/C=C\C/C=C\CCCCCCCCN(CCCCCC(=O)OCC(CCCCCCCC)CCCCCCCCCC)CCOC(=O)NCCN(C)C (stereo not shown) [Lipid 75, 2-octyldodecyl 2-methyl-10-((9Z,12Z)-octadeca-9,12-dien-1-yl)-6-oxo-7-oxa-2,5,10-triazahexadecan-16-oate]
MCP-I in Sera 2 hours After 0.5 MPK Injection [1]: 8335.00 pg/mL
MCP-I in Sera 24 hours After 0.5 MPK Injection [1]: 93.14 pg/mL
Zeta (mV) ([2]; LNP with cirRNA (SEQ ID NO: 1)): 1.59 mV
Zeta (mV) ([2]; LNP with mRNA (SEQ ID NO: 2)): 13.66 mV
In vitro Expression HepG2 [3, 13]: 1.94E+06
In vitro Expression HepG2 [3, 14]: 9.23E+06
ALT in Sera (IU/L) 2 hours After 0.5 MPK Injection [4]: 111.37 IU/L
ALT in Sera (IU/L) 24 hours After 0.5 MPK Injection [4]: 48.97 IU/L
PDI ([5]; LNP with cirRNA (SEQ ID NO: 1)): 0.13
Size ([5]; LNP with cirRNA (SEQ ID NO: 1)): 91.13
PDI ([5]; LNP with mRNA (SEQ ID NO: 2)): 0.1903
Size ([5]; LNP with mRNA (SEQ ID NO: 2)): 70.28
In vitro Viability RAW [6, 15]: 75%
In vitro Viability RAW [6, 16]: 96%
Encapsulation Efficiency % [7]: 97%
Encapsulation Efficiency [7]: 89%
Footpad Thickness (24 h−0 h, mm) [8]: 0.85 mm
AST in Sera (IU/L) 2 hours After 0.5 MPK Injection [9]: 279.87 IU/L
AST in Sera (IU/L) 24 hours After 0.5 MPK Injection [9]: 94.83 IU/L
In vitro Viability HepG2 [10, 17]: 85%
In vitro Viability HepG2 [10, 16]: 95%
In vitro Expression RAW [11, 18]: 2.08E+06
In vitro Expression RAW [11, 14]: 2.18E+06
In vivo Expression (Whole Body) [12, 19]: 9.85E+08
In vivo Expression (Whole Body) [12, 20]: 4.22E+08
